In patent publication US20120010075A1 (priority 2009, published 2012):
Read-outs that look alike come from different tables or passages of the source.

How the values were obtained:
[1] = tested on: Leptosphaeria nodorum (LEPTNO); assay: In vitro fungitoxicity of hydrazones with and without copper towards Leptosphaeria nodorum (Example 26); assay type: cell-based; conditions: 72 h at 25° C.; for LEPTNO % Inhn. Plus Copper Observed: copper-plus medium (CuCl2.2H2O)
[2] = tested on: Phytophthora capsici; assay: In vitro fungitoxicity of hydrazones with and without copper towards Phytophthora capsici (Example 28, Table 3); assay type: cell-based; conditions: for % Inhn Plus copper Observed: copper-plus AS medium (CuCl2, 50 μM); for inhibition of growth at 0.05 µg/mL / inhibition of growth at 0.039 µg/mL: Phytophthora capsici, read-out: % Inhn Minus copper Observed
[3] = tested on: Phytophthora infestans; assay type: in vivo, Phytophthora infestans on tomato; conditions: hydrazone 50 ppm + 50 μM CuCl2.2H2O, applied 24 h before inoculation, assessed 7 days after inoculation, tomato
[4] = tested on: Phytophthora infestans; assay type: in vivo, Phytophthora infestans on tomato (Outdoor Girl); conditions: no hydrazone
[5] = Parastagonospora nodorum, 72 h, compound 0.05 μg/mL, copper-minus medium, read-out: LEPTNO % Inhn. Minus Copper Observed
[6] = 0.050 μg/mL, copper-minus AS medium, 48 h
[7] = 0.039 μg/mL, copper-minus AS medium, 48 h

| Compound | melting point | inhibition of growth at 0.05 µg/mL [1, 5] | LEPTNO % Inhn. Plus Copper Observed ([1]; compound 0.05 μg/mL) | % Inhn Plus copper Observed ([2]; 0.050 μg/mL, 48 h) | inhibition of growth at 0.05 µg/mL [2, 6] | TLB % Control [3] | % Inhn Plus copper Observed ([2]; 0.039 μg/mL, 48 h) | inhibition of growth at 0.039 µg/mL [2, 7] | further results |
| --- | --- | --- | --- | --- | --- | --- | --- | --- | --- |
| O=C(N/N=C/c1cc(Cl)cc(Cl)c1O)c1cc(Cl)ccc1Br [Example 219] | 228 to 231 °C | 34.5% | 97.9% | 90.6% | 15.3% | 68.4% | – | – | – |
| O=C(N/N=C/c1ccccc1O)c1cc(I)ccc1Br [Example 221] | 202 to 205 °C | 0% | 92.4% | 92.2% | 12% | 66.0% | – | – | – |
| Cc1ccc(C(=O)N/N=C/c2cc(Br)cc(Br)c2O)c(Br)c1 [Example 229] | 258 to 261 °C | 6% | 98.0% | 89.1% | 1.6% | 70.9% | – | – | – |
| O=C(N/N=C/c1cc(I)cc(I)c1O)c1ccccc1 [Example 146] | – | 0% | 96.2% | – | – | 71.2% | 91.4% | 11.8% | – |
| C/C(=N\NC(=O)Cc1ccc(C(F)(F)F)cc1)c1cc(Cl)cc(Cl)c1O [Example 129] | 207 to 212 °C | 5.5% | 97.8% | – | – | 49.0% | 96.3% | 10.6% | – |
| O=C(N/N=C/c1ccccc1O)c1cc(Cl)ccc1Br [Example 218] | 222 to 225 °C | 0% | 92.5% | 93.3% | 10.7% | 70.9% | – | – | – |
| O=C(Cc1ccc(Cl)cc1)N/N=C/c1cc(Cl)cc(Cl)c1O [Example 123] | – | 7.5% | 95.5% | – | – | 71.0% | 94.8% | 16.3% | – |
| O=C(N/N=C/c1cc(Br)cc(Br)c1O)c1cc(I)ccc1Cl [Example 226] | 205 to 212 °C | 0% | 94.5% | 62.1% | 2.3% | 71.0% | – | – | – |
| O=C(N/N=C/c1cc(Br)cc(Br)c1O)c1cc(Cl)ccc1Br [Example 220] | 215 to 218 °C | 0% | 95.3% | 85.5% | 13.4% | 89.1% | – | – | – |
| O=C(N/N=C/c1cc(Cl)cc(Cl)c1O)c1ccc2c(c1)OCO2 [Example 6] | – | 3.9% | 96.4% | – | – | 88.1% | 95.8% | 28.8% | – |
| O=C(N/N=C/c1cc(Cl)cc(Cl)c1O)c1cc(I)ccc1Cl [Example 225] | 198 to 201 °C | 0% | 96.6% | 82.8% | 11.4% | 78.2% | – | – | – |
| Cc1ccc(/C=N/NC(=O)c2ccc(C(C)C)cc2)c(O)c1 [Example 14] | – | – | – | – | – | 7.5% | 87.2% | 0% | inhibition of growth at 0.156 µg/mL ([1]; Parastagonospora nodorum, 72 h, compound 0.156 μg/mL, copper-minus medium, read-out: LEPTNO % Inhn. Minus Copper Observed): 2.9%; LEPTNO % Inhn. Plus Copper Observed ([1]; compound 0.156 μg/mL): 59.1% |
| O=C(N/N=C/c1cc(Cl)cc(Cl)c1O)c1cc(I)ccc1Br [Example 222] | 201 to 219 °C | 0% | 94.5% | 76.8% | 11.3% | 67.3% | – | – | – |
| O=C(Cc1ccccc1)N/N=C/c1cc(Cl)cc(Br)c1O [Example 210] | – | 1.9% | 94.1% | – | – | 37.0% | 92.7% | 36.6% | – |
| O=C(N/N=C/c1cc(Cl)cc(Cl)c1O)c1ccccc1C(F)(F)F [Example 56] | 106 to 111 °C | 2.1% | 96.3% | – | – | 81.3% | 94.1% | 57.5% | – |
| O=C(N/N=C/c1cc(Br)cc(Br)c1O)c1cc(I)ccc1Br [Example 223] | 215 to 216 °C | 26.9% | 97.2% | 51.3% | 2.5% | 54.0% | – | – | – |

| Compound | melting point | inhibition of growth at 0.05 µg/mL [1, 5] | LEPTNO % Inhn. Plus Copper Observed ([1]; compound 0.05 μg/mL) | % Inhn Plus copper Observed ([2]; 0.050 μg/mL, 48 h) | inhibition of growth at 0.05 µg/mL [2, 6] | TLB % Control [3] | % Inhn Plus copper Observed ([2]; 0.039 μg/mL, 48 h) | inhibition of growth at 0.039 µg/mL [2, 7] | further results |
| --- | --- | --- | --- | --- | --- | --- | --- | --- | --- |
| COc1cccc(C(=O)N/N=C/c2cc(Cl)cc(Cl)c2O)c1C [Example 99] | 192 to 194 °C | 8.9% | 94.5% | – | – | 50.3% | 94.0% | 23.6% | – |
| O=C(N/N=C/c1cc(Cl)cc(Cl)c1O)c1ccccc1F [Example 101] | – | 7.8% | 97.3% | – | – | 85.3% | 88.2% | 70% | – |
| O=C(Cc1ccccc1)N/N=C/c1cc(Br)cc(Br)c1O [Example 124] | – | 0% | 88.2% | – | – | 23.0% | 89.7% | 25% | – |
| O=C(N/N=C/c1ccccc1O)c1ccc(-c2ccccc2)cc1 [Example 183] | – | 0% | 96.7% | – | – | 66.7% | 88.9% | 0% | – |
| Cc1ccc(C(=O)N/N=C/c2ccccc2O)c(Br)c1 [Example 227] | 86 to 122 °C | 5% | 95.0% | 93.4% | 1.7% | 52.7% | – | – | – |
| Cc1cc(C)cc(C(=O)N/N=C/c2cc(Cl)cc(Cl)c2O)c1 [Example 102] | 207 to 209 °C | 0% | 93.4% | – | – | 74.0% | 93.6% | 15.7% | – |
| O.O.O.O.O.O=S(=O)([O-])[O-].[Cu+2] [CuSO4, CuSO4.5H2O, reference compound] | – | – | – | – | – | – | – | – | % Control of Tomato Late Blight ([4]; CuSO4 10 μM alone): 1.7%; % Control of Tomato Late Blight ([4]; CuSO4 50 μM alone): 4.8%; % Control of Tomato Late Blight ([4]; CuSO4 200 μM alone): 49.7%; % Control of Tomato Late Blight ([4]; CuSO4 400 μM alone): 76.0%; % Control of Tomato Late Blight ([4]; CuSO4 800 μM alone): 82.9% |
| CCOc1ccc(C(=O)N/N=C/c2ccccc2O)cc1 [Example 21] | – | 0.1% | 94.1% | – | – | 65.5% | 90.0% | 0% | – |
| O=C(N/N=C/c1ccccc1O)c1cc(I)ccc1Cl [Example 224] | 222 to 226 °C | 0% | 91.0% | 93.3% | 6.2% | 67.3% | – | – | – |
| O=C(N/N=C/c1cccc(F)c1O)c1ccccc1 [Example 15] | 197 to 198 °C | – | 96.6% | – | – | 58.5% | 91.8% | – | LEPTNO % Inhn. Minus Copper Observed ([1]; compound 0.05 μg/mL, copper-minus medium): 4.4%; % Inhn Plus copper Predicted ([2]; 0.039 μg/mL, Colby formula, CuCl2, 50 μM): 81.2%; % Inhn Minus copper Observed [2, 7]: 80.4% |
| Cc1ccc(C(=O)N/N=C/c2cc(Cl)cc(Cl)c2O)c(Br)c1 [Example 228] | 240 to 242 °C | 2.6% | 97.0% | 86.9% | 10% | 68.4% | – | – | – |
| CNc1ccccc1C(=O)N/N=C/c1ccccc1O [Example 3] | – | 2.3% | 93.0% | – | – | 47.0% | 88.5% | 0% | – |
| C/C(=N\NC(=O)CCc1ccccc1)c1ccccc1O [Example 131] | – | 0% | 96.8% | – | – | 62.0% | 93.7% | 5.6% | – |
| O=C(Cc1ccccc1)N/N=C/c1cc(Cl)cc(Cl)c1O [Example 125] | – | 2.4% | 94.4% | – | – | 87.0% | 89.4% | 66.6% | – |
| O=C(N/N=C/c1ccccc1O)c1cccc(Br)c1 [Example 182] | – | 0% | 97.6% | – | – | 74.6% | 90.9% | 25.9% | – |
